According to patent US12528821B2, “pH-dependent composition matters useful for study and diagnosis of alzheimer's disease” (Purdue Research Foundation, priority 2019, dated 2026):

Tests used:
[1] = pH-sensitivity: fluorescence intensity at various pH conditions; assay type: physicochemical
Method: The cell culture medium was treated with dilute HCl and NaOH solutions to obtain different solutions with pH of 1.0 to 9.0 for the assay. […] Different dilutions for each pH condition was prepared at concentrations of 0.5, 1.0, 2.0, and 5.0 μM in a 96-well plate.

[2] = tested on: primary immunopanned rat astrocytes; assay: Uptake by primary immunopanned astrocytes in serum-free conditions; assay type: cell-based; conditions: fixed, GFAP stained
[3] = tested on: primary mouse microglia; assay: Phagocytic uptake by primary microglia ex vivo (confocal, flow cytometry); assay type: cell-based
[4] = tested on: N9 microglial cells; assay: Phagocytosis assay with live cells (IncuCyte live-cell imaging); assay type: cell-based, mouse
Method: (§1) To visualize the phagocytosis of hAβ^pH in live microglial cells, immortalized human microglial clone 3 (HMC3) cells and mouse BV2 and N9 microglial cells were treated with 0.1-5.0 μM doses of hAβ^pH and live-cell images were acquired every 30 minutes for 24 hours on the IncuCyte™ ZOOM Live Content Imaging system (FIGS. 3A-3B). The green channel on the IncuCyte™ ZOOM system allows for excitation and emission wavelengths of 460/524 nm and thus the hAβ^pH reporter was optimal for use on the instrument.
(§2) Cells were seeded at 5000 cells per well (200 μL per well) in a 96-well flat bottom plate (Falcon) for approximately 16 hours (overnight). The lyophilized hAβ^pH conjugate was dissolved in the culture medium for each cell type and filtered using 0.22 μm syringe filter. The adherent cells (BV2, N9, HMC3) were treated with a final concentration of hAβ^pH at 0, 0.1, 0.5, 1.0, 2.0, and 5.0 μM by replacing one-half of the culture medium (100 μL) with 2× concentration. Two technical replicates were used for each treatment concentration. The plates were immediately placed in the IncuCyte® S3 Live-Cell Analysis System (Essen BioScience) and four images per well were captured at 30-minute time intervals for 24 hours. The fluorescence intensity, cell confluence, and the integrated fluorescence intensity data was obtained and analyzed using the GraphPad Prism® software. The total hAβ^pH phagocytosis per concentration was calculated as:
[formula] wherein, Total Integrated Intensity is defined as the total sum of hAβ^pH's fluorescent intensity in the image and Relative Total Integrated Intensity is defined as Total Integrated Intensity (t)—Total Integrated Intensity (t=0) for each concentration. Flow Cytometry Analysis of BV-2 Microglia Phagocytosis

[5] = tested on: microglia and astrocytes in rat hippocampal tissue sections; assay: Phagocytosis assay in rat hippocampal tissue slices (in situ); conditions: IBA1+ and GFAP+ staining
[6] = tested on: microglia and astrocytes in the cerebral cortex; assay: In vivo two-photon imaging of the barrel cortex through a cranial window after topical application; set-up: species or system mouse
[7] = Atomic Force Microscopy analysis of aggregation; assay type: physicochemical; conditions: compared with non-conjugated Aβ1-42
Method: AFM sample preparation: The manufacturer's protocol was followed for sample preparation, image acquiring and analysis.
1 mM Aβ solution was prepared by adding HFIP directly to the vial (0.5 mg Aβ or hAβ^pH or recombinant Aβ(M1-42) in 93.35 μL HFIP). The peptide should be completely dissolved. The solution was incubated at room temperature (RT) for at least 30 min. HFIP was allowed to evaporate in the open tubes overnight in the fume hood or using Argon/Nitrogen gas and then dry down under high vacuum for 1 h without heating to remove any remaining traces of HFIP and moisture. The resulting peptide thin clear film formed at the bottom of the tubes. The tubes containing dried peptides were stored at −20° C. until further use.
Prior to use, tube containing peptide film was allowed to come to RT. Then, 5 mM Aβ DMSO stock was prepared by adding 20 μL fresh dry DMSO to 0.45 mg. Pipette thoroughly, scraping down the sides of the tube near the bottom to ensure complete resuspension of peptide film. Vortex well (˜30 sec) and pulse in a microcentrifuge to collect solution at the bottom of the tube. Sonicate 5 mM Aβ DMSO solution for 10 min. Use this preparation as the starting material for unaggregated Aβ and oligomeric Aβ. For oligomer formation, samples were incubated at 4° C. for 24 hr.
Sample preparation was done with proper sterile technique with sterile media and MilliQ-water. […]

[8] = tested on: HMC3, BV2, and N9 microglial cells; assay: Confocal imaging of actin filaments and nuclei in paraformaldehyde-fixed phagocytic microglial cells; assay type: cell-based, human, mouse; conditions: 5.0 μM for 2 hours, fixed with 4% paraformaldehyde
Method: Fixation of cells and using target protein markers along with hAβ^pH can inform us about the molecular mechanisms involved in microglial phagocytosis with confocal microscopy. To confirm that the hAβ^pH reporter can maintain its fluorescence in fixed cells, HMC3, BV2, and N9 microglial cells were fixed with common cell staining reagents. The cells were treated with 5.0 μM of hAβ^pH for 2 hours and fixed with 4% paraformaldehyde followed by the addition of the phalloidin dye to visualize cellular integrity via the staining of the F-actin filaments (FIG. 5).
For labeling the cells with Phalloidin and DAPI, 20,000 cells/250 μL were plated in 14 mm microwells of the 35 mm glass bottom dishes (MatTek #P35G-1.5-14-C) and kept overnight. The cells were treated with 5.0 μM hAβ^pH for 2 hours on the next day. Then the medium was aspirated, and cells were fixed with 4% paraformaldehyde for 20 mins, and then gently washed once with PBS. Phalloidin-iFluor 555 reagent was diluted at a concentration of 1 μL/mL in PBS and added to the fixed cells for 10 minutes for staining the actin filaments. To label the nuclei, DAPI was diluted at a concentration of 1 μL/mL. […] Fluorescence images of phagocytic microglial cells were captured using 40× and 60× objectives on the Nikon AR-1 MP confocal laser microscope. […]

[9] = tested on: HMC3, N9, and BV2 cells; assay: Confocal imaging of intracellular acidic organelles (LysoTracker) in fixed phagocytic microglial cells; assay type: cell-based, human, mouse; conditions: 5.0 μM, 2-hour time point
From the text: To visualize the localization of the hAβ^pH within the microglial cell cytoplasm, the acidic intracellular compartments were labeled with LysoTracker™ DND-99 that stains the lysosomal organelles of the cells. […] It has been recently shown that microglia in vitro recognize and phagocytose Aβ peptides through scavenger receptors,^8 Toll-Like Receptor 2 (TLR2),^17 Cluster of Differentiation 14 (CD14),^18 and Triggering Receptors Expressed on Myeloid Cells 2 (TREM2).^19 Thus, our hAβ^pH reporter serves as a valuable chemical tool in delineating the role of several receptor proteins involved in the Aβ uptake of live and fixed microglial cells using cell staining reagents and by using specific antibodies such as anti-CD14, anti-TREM2, etc. Additionally, the role of inflammation, including the effects of inflammatory cytokines, such as IL-la and TNF-α, on Aβ clearance is not resolved. Thus, our hAβ^pH will be a valuable for studying hAβ^pH phagocytosis under the influence of inflammatory cytokines or small molecule inhibitors.
LysoTracker® Red DND-99 was used for labeling the intracellular organelles of the cells to observe localization of hAβ^pH sensors inside the cells after phagocytosis. […] Fluorescence images of phagocytic microglial cells were captured using 40× and 60× objectives on the Nikon AR-1 MP confocal laser microscope. […]

[10] = tested on: BV2 microglial cells; assay: Flow cytometry analysis of BV-2 microglia phagocytosis; assay type: cell-based, mouse; conditions: 0.5 and 1.0 μM for 1 hour
Method: BV2 microglial cells were seeded at a density of 250 k cells/well in a 6-well plate for around 14 hr overnight. […] After 2 hours, the plate was brought to the hood, placed on ice to stop phagocytosis, and cell culture medium containing hAβ^pH was aspirated. The cells were washed once with cold PBS. Next, the cells were treated with ice cold PBS with 2 mM EDTA for 2 mins on ice to initiate detachment of the cells from the wells. The cells were fully detached from the wells with very gentle pipetting and transferred into falcon tubes. The cells were centrifuged once at 1400 RPM for 3 mins. The PBS/EDTA supernatant was aspirated out and the cell pellets were re-suspended in FACS buffer (PBS, 25 mM HEPES, 2 mM EDTA, and 2% FBS). Five minutes before analysis of each sample tube, Propidium Iodide (PI) was added to the sample (40 ng/1 mL cell suspension) for staining of live/dead cells. […] The filed were then analyzed on FlowJo V10 software. Gating strategy is indicated in FIG. 4 on the main manuscript.

[11] = tested on: retinal IBA1+ microglia and GFAP+ astrocytes; assay: Subretinal injection, in vivo uptake by retinal microglia and astrocytes; conditions: rat
[12] = tested on: BV2 microglial cells; assay: Phagocytosis assay with live cells (IncuCyte live-cell imaging); assay type: cell-based, mouse
Method: Cells were seeded at 5000 cells per well (200 μL per well) in a 96-well flat bottom plate (Falcon) for approximately 16 hours (overnight). […] Two technical replicates were used for each treatment concentration. The plates were immediately placed in the IncuCyte® S3 Live-Cell Analysis System (Essen BioScience) and four images per well were captured at 30-minute time intervals for 24 hours. The fluorescence intensity, cell confluence, and the integrated fluorescence intensity data was obtained and analyzed using the GraphPad Prism® software.
Flow Cytometry Analysis of BV-2 Microglia Phagocytosis

[13] = tested on: cortical IBA1+ microglia and GFAP+ astrocytes; assay: Stereotaxic microinjection in the somatosensory cortex, staining of fixed tissue sections; assay type: in vivo, mouse
[14] = tested on: HMC3 cells; assay: Phagocytosis assay with live cells (IncuCyte live-cell imaging); assay type: cell-based, human
Method: as §1
as §2, with “The plates were immediately placed in the IncuCyte® S3 Live-Cell Analysis System (Essen BioScience) and four images per well were captured at 30-minute time intervals for 24 hours.” left out, “as: […]” for “as:”

[15] = P7 mouse, periventricular white matter, 72 h

RODO-conjugated hAβ^pH: conjugate of the Aβ1-42 peptide with pHrodo-Red (RODO) fluorophore
pH range of increased fluorescence ([1]; 0.5, 1.0, 2.0, and 5.0 μM, FIG. 1C): 1.0-7.0

hAβ^pH: pH-dependent fluorescent conjugate of human Aβ1-42 peptide linked to amine-reactive Protonex Green 500, SE (PTXG) fluorophore
phagocytosis by astrocytes [2]: also phagocytose Aβ^pH | green fluorescence in live (ZV-) cells (flow cytometry) ([3]; 0.5, 1.0, and 2.0 μM for 1 hour): green fluorescence is measured | phagocytosis ex vivo (confocal, LysoTracker Red) ([3]; defined, reduced-serum media, fixed cells): phagocytose Aβ^pH ex vivo | intracellular fluorescence beyond 18 hours ([4]; 5.0 μM): began to decrease | time of peak intracellular green fluorescence ([4]; 5.0 μM): 12 to 18 h | intracellular fluorescence (phagocytosis) over time ([4]; 1.0 and 2.0 μM doses): gradual increase in intracellular fluorescence | phagocytosis in situ [5]: phagocytosed by both microglia and astrocytes in situ | fluorescence in cell somata after topical application ([6]; mouse barrel cortex, two-photon imaging): fluorescence increases in cell somata | colocalization with IBA1, CD68, and GFAP ([6]; perfusion-fixed 1.5 to 3 hours after imaging, cortical slices): most Aβ^pH is taken up by microglia and astrocytes in vivo | ability to aggregate (AFM) [7]: aggregate similar to the non-conjugated Aβ | fluorescence retained in fixed cells (confocal, phalloidin) [8]: showed green fluorescence | co-localization with LysoTracker dye [9]: confirmed the presence of hAβ^pH within the acidic phagosomes | green fluorescence in live (PI-) cells (flow cytometry) [10]: green fluorescence is measured | fluorescence in retinal astrocytes (quantification) ([11]; 3 time points, FIG. 11G): No fluorescence was detected | phagocytosis by GFAP+ retinal astrocytes in vivo ([11]; FIG. 11F): phagocytose Aβ^pH in vivo | intracellular fluorescence during the 18-hour time period ([12]; 5.0 μM dose): increased intracellular fluorescence | intracellular fluorescence (phagocytosis) over time ([12]; 1.0 and 2.0 μM doses): gradual increase in intracellular fluorescence | phagocytic uptake at the 24 h timepoint ([13]; P7 mouse, periventricular white matter, 24 h): phagocytic uptake of Aβ^pH by IBA1^+ microglia and GFAP^+ astrocytes | fluorescence in GFAP+ astrocytes at 72 h [13, 15]: do not show any green fluorescence | fluorescence in IBA1+ microglia at 72 h [13, 15]: bright green fluorescence | fluorescence within microglia vs astrocytes ([13]; pia and white matter regions): more Aβ^pH uptake by microglia compared to astrocytes | phagocytosis ([14]; 5.0 μM): increased phagocytosis | time period of increased intracellular fluorescence ([14]; 1.0 and 2.0 μM doses, followed by gradual decrease): 1 to 8 h | fluorescence intensity at the physiological pH of 7.4 ([1]; pH 7.4): did not show an increased fluorescence intensity
